The test has as its target Renin (Sus scrofa). The test can be described thus: In vitro inhibitory activity towards porcine kidney renin.

This passage reports IC50 results from BindingDB's records for doi:10.1021/jm00396a006 (Upjohn, 1988).

Numbered stars: 1 amine (or outer) side, 2 acyl side, 3 side chain; on linkers, the order of the positions; unused ones are H or OH. Square brackets hold non-standard residues; d marks the D form. Peptide text beside a SMILES is read from it. * marks the point of attachment. ξ: configuration not given here. Sta(3ξ) = CC(C)C[C@H](N[*:1])C(O)CC(=O)[*:2]; X1 = CC(C)CC(N[*:1])C(O)CC(=O)[*:2]; For = O=C*

The IC50 is the concentration at which inhibition is half-maximal. A high value points to a need for much substance. Take `CC[C@H](C)[C@H](NC(=O)CC(O)[C@H](CC(C)C)NC(=O)[C@H](Cc1cnc[nH]1)NC(=O)[C@H](Cc1ccccc1)NC(=O)[C@@H]1CCCN1C(=O)[C@H](Cc1cnc[nH]1)NC(C)=O)C(N)=O` (stereo partly drawn) [Ac-His-Pro-Phe-His-Sta-Ile-NH2] (Ac-HPFH[Sta(3ξ)]I-NH2): the half-inhibitory concentration (IC50) came out at 1.5 µM.

Consider `CC[C@H](C)[C@H](NC(=O)CC(O)[C@H](CC(C)C)NC(=O)[C@H](Cc1cnc[nH]1)NC(=O)[C@H](Cc1ccccc1)NC(=O)[C@@H]1CCCN1C(=O)[C@H](Cc1cn(C=O)c2ccccc12)NC(C)=O)C(N)=O` (stereo partly drawn) [Ac-Ftr-Pro-Phe-His-Sta-Ile-NH2], for which 0.12 µM corresponded to half-maximal inhibition (IC50). Compared with the last compound, the IC50 is about 12-fold lower.

As to `CC(=O)N[C@@H](Cc1cn(C=O)c2ccccc12)C(=O)N1CCC[C@H]1C(=O)N[C@@H](Cc1ccccc1)C(=O)N[C@@H](Cc1cnc[nH]1)C(=O)NC(CC(C)C)C(O)CC(=O)N[C@H](C(=O)N[C@@H](Cc1cn(C=O)c2ccccc12)C(N)=O)C(C)C` (stereo partly drawn) [Ac-Ftr-Pro-Phe-His-Sta-Val-Ftr-NH2] (Ac-W(For)PFH[X1]VW(For)-NH2), the IC50 turned out to be 0.0049 µM. This IC50 is about 24-fold lower than that of the compound before.
